# Target: Gamma-secretase
# Assay: Inhibition of gamma secretase in human H4 cells over expressing human APP695 harboring K595N/M596L Swedish double mutant assessed as reduction in Abeta42 production level after 24 hrs by Alphalisa assay
# Assay type: cell-based
row,Structure (SMILES),IC50 [nM]
1,Cc1cn(C23CC(Nc4nc5n(n4)CCCC[C@@H]5c4cc(F)cc(Cl)c4)(C2)C3)cn1,8
2,Cc1cn(C23CCC(Nc4nc5n(n4)CCCC[C@@H]5c4cc(F)cc(Cl)c4)(CC2)CC3)cn1,15
3,Cc1cn(C23CCC(Nc4nc5n(n4)CCCC[C@@H]5c4ccc(F)c(F)c4)(CC2)CC3)cn1,39
4,Cc1cn(C23CC(Nc4nc5n(n4)CCCC[C@H]5c4cc(F)cc(Cl)c4)(C2)C3)cn1,14
5,Cc1cn(C23CCC(Nc4nc5n(n4)CCCC[C@H]5c4cc(F)cc(Cl)c4)(CC2)CC3)cn1,14
6,Cc1cn(C23CCC(Nc4nc5n(n4)CCCC[C@H]5c4ccc(F)c(F)c4)(CC2)CC3)cn1,49

# Other lines, results leading:
row,IC50 [nM],Structure (SMILES)
1,23,Cc1cn(C23CC(Nc4nc5n(n4)CCCC[C@H]5c4ccc(Cl)cc4)(C2)C3)cn1
2,26,Cc1cn(C23CC(Nc4nc5n(n4)CCCC[C@@H]5c4ccc(Cl)cc4)(C2)C3)cn1
3,31,Cc1cn(C23CC(Nc4nc5n(n4)CCCC[C@H]5c4ccc(F)cc4)(C2)C3)cn1
4,44,Cc1cn(C23CC(Nc4nc5n(n4)CCCC[C@@H]5c4ccc(F)c(F)c4)(C2)C3)cn1
5,27,Cc1cn(C23CC(Nc4nc5n(n4)CCCC[C@H]5c4ccc(F)c(F)c4)(C2)C3)cn1
6,16,Cc1cn(C23CC(Nc4nc5n(n4)CCCC[C@H]5c4cccc(Cl)c4)(C2)C3)cn1
7,15,Cc1cn(C23CC(Nc4nc5n(n4)CCCC[C@@H]5c4cccc(Cl)c4)(C2)C3)cn1
8,25,Cc1cn(C23CC(Nc4nc5n(n4)CCCC[C@@H]5c4ccc(F)cc4)(C2)C3)cn1

# Source: ChEMBL document CHEMBL4304806, “Triazolo-azepine Inhibitors of γ-Secretase and Their Methods of Use” (ACS Med Chem Lett, 2019)
